Measured values reported in patent publication US8822447B2, “Indazole compounds useful as ketohexokinase inhibitors” (Janssen Pharmaceutica NV, priority 2010, dated 2014).
pIC50: −log10 of the molar value. Where a name gives a salt, the structure may show the parent alone.

target: KHK (Homo sapiens (Human), UniProt P50053); assay: In Vitro KHK Enzyme Assay (HTMS); format: biochemical; settings: 200 μM fructose, 100 μM ATP, 2 nM KHK, 60 min at 25° C.; Fructose-1-P detected by high throughput mass spectrometry;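 note: primary screen measuring inhibition of KHK-catalysed conversion of D-fructose into fructose 1-phosphate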
Sequence (P50053 whole entry): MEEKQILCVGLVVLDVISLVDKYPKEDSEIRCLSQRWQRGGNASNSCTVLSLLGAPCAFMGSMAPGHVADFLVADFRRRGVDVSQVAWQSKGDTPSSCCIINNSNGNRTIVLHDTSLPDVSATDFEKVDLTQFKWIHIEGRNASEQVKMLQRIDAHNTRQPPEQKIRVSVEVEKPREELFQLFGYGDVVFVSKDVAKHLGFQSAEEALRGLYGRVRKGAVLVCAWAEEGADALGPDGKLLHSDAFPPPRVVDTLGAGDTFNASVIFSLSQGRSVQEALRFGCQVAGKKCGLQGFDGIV

Row | pIC50 | Compound
1 | 4.83 | Cc1nn(-c2ccccc2)c2cc(N3CCN(C(C)C)CC3)ccc12 [Compound 70, 6-(4-Isopropylpiperazin-1-yl)-3-methyl-1-phenyl-1H-indazole formic acid salt]
2 | 5.78 | CCc1nn(-c2ccccc2)c2nc(C3CCN(c4ccncc4)CC3)nc(O)c12 [Compound 92, 3-Ethyl-1-phenyl-6-(3,4,5,6-tetrahydro-2H-[1,4′]bipyridinyl-4-yl)-1H-pyrazolo[3,4-d]pyrimidin-4-ol]
3 | 6.42 | CSc1nn(-c2ccccc2)c2cc(NC(=O)CCN3CCNCC3)ccc12 [Compound 132, N-(3-Methylsulfanyl-1-phenyl-1H-indazol-6-yl)-3-piperazin-1-yl-propionamide]
4 | 5.35 | COc1nn(-c2ccccc2)c2cc(-c3ccc(N4CCNCC4)cc3)ccc12 [Compound 78, 3-Methoxy-1-phenyl-6-(4-(piperazin-1-yl)phenyl)-1H-indazole hydrochloride]
5 | 6.21 | CSc1nn(-c2ccccc2)c2cc(C=CC3CCCN3)ccc12 (stereo not drawn) [Compound 175, 3-Methylsulfanyl-1-phenyl-6-(2-pyrrolidin-2-yl-vinyl)-1H-indazole]
6 | 5.57 | Cc1nn(-c2ccccc2)c2nc(-c3ccc(N4CCNCC4)cc3)cc(O)c12 [Compound 97, 3-Methyl-1-phenyl-6-(4-piperazin-1-yl-phenyl)-1H-pyrazolo[3,4-b]pyridin-4-ol]
7 | 5.62 | CCc1nn(-c2ccccc2)c2nc(C3CCNCC3)nc(O)c12 [Compound 91, 3-Ethyl-1-phenyl-6-piperidin-4-yl-1H-pyrazolo[3,4-d]pyrimidin-4-ol hydrochloride]
8 | 4.85 | Cc1nn(-c2ccccc2)c2nc(C3CCN(C4CCNCC4)CC3)nc(O)c12 [Compound 89, 6-[1,4′]Bipiperidinyl-4-yl-3-methyl-1-phenyl-1H-pyrazolo[3,4-d]pyrimidin-4-ol hydrochloride]
9 | 5.21 | Cc1nn(-c2ccccc2)c2nc(C3CCNCC3)nc(O)c12 [Compound 86, 3-Methyl-1-phenyl-6-piperidin-4-yl-1H-pyrazolo[3,4-d]pyrimidin-4-ol hydrochloride]
10 | < 4.29 | CSc1nn(-c2ccc([N+](=O)[O-])cc2)c2cc(C(=O)N3CCNCC3)ccc12 [Compound 133, [3-Methylsulfanyl-1-(4-nitro-phenyl)-1H-indazol-6-yl]-piperazin-1-yl-methanone]
11 | 5.69 | CCc1nn(-c2ccccc2)c2cc(N3CCN(C4CCNC4)CC3)ccc12 (stereo not drawn) [Compound 45, 3-Ethyl-1-phenyl-6-(4-(pyrrolidin-3-yl)piperazin-1-yl)-1H-indazole hydrochloride]
12 | 6.41 | COc1nn(-c2ccccc2)c2cc(N3CC(N4CCNCC4)C3)ccc12 [Compound 73, 3-Methoxy-1-phenyl-6-(3-(piperazin-1-yl)azetidin-1-yl)-1H-indazole hydrochloride]
13 | < 4.52 | Cc1nn(-c2ccccc2)c2nc(C3CCN(C(=O)C4CCNCC4)CC3)nc(O)c12 [Compound 87, [4-(4-Hydroxy-3-methyl-1-phenyl-1H-pyrazolo[3,4-d]pyrimidin-6-yl)-piperidin-1-yl]-piperidin-4-yl-methanone hydrochloride]
14 | 4.52 | CCc1nn(-c2ccccc2)c2nc(C3CCN(C(=O)C4CCNCC4)CC3)nc(O)c12 [Compound 96, [4-(3-Ethyl-4-hydroxy-1-phenyl-1H-pyrazolo[3,4-d]pyrimidin-6-yl)-piperidin-1-yl]-piperidin-4-yl-methanone hydrochloride]
15 | 6.44 | COc1ccc(-n2nc(SC)c3ccc(N4CCN(C5CCNCC5)CC4)cc32)cc1 [Compound 106, 1-(4-Methoxy-phenyl)-3-methylsulfanyl-6-(4-piperidin-4-yl-piperazin-1-yl)-1H-indazole]
16 | 6.66 | CSc1nn(-c2ccccc2)c2cc(NC(=O)C3CNC3)ccc12 [Compound 2, N-(3-(Methylthio)-1-phenyl-1H-indazol-6-yl)azetidine-3-carboxamide hydrochloride]
17 | 6.42 | CSc1nn(-c2cccc(C)c2)c2cc(N3CCN(C4CCNCC4)CC3)ccc12 [Compound 119, 3-Methylsulfanyl-6-(4-piperidin-4-yl-piperazin-1-yl)-1-m-tolyl-1H-indazole]
18 | 6.18 | CSc1nn(-c2ccccc2)c2cc(NC(=O)C3(F)CCNCC3)ccc12 [Compound 167, 4-Fluoro-piperidine-4-carboxylic acid (3-methylsulfanyl-1-phenyl-1H-indazol-6-yl)-amide]
19 | 6.32 | CSc1nn(-c2ccccc2)c2cc(C3=CCN(C(=O)CCN)CC3)ccc12 [Compound 149, 3-Amino-1-[4-(3-methylsulfanyl-1-phenyl-1H-indazol-6-yl)-3,6-dihydro-2H-pyridin-1-yl]-propan-1-one]
20 | 5.63 | CCc1nn(-c2ccccc2)c2cc(N3CCC(N4CCNCC4)C3)ccc12 (stereo not drawn) [Compound 43, 3-Ethyl-1-phenyl-6-(3-(piperazin-1-yl)pyrrolidin-1-yl)-1H-indazole hydrochloride]

Row | pIC50 | Compound
21 | 5.37 | CSc1nn(-c2cc(F)cc(F)c2)c2cc(N3CCN(C4CCNCC4)CC3)ccc12 [Compound 126, 1-(3,5-Difluoro-phenyl)-3-methylsulfanyl-6-(4-piperidin-4-yl-piperazin-1-yl)-1H-indazole]
22 | 5.01 | CCc1nn(-c2ccccc2)c2cc(-c3ccc(N4CCNCC4)cc3)ccc12 [Compound 52, 3-Ethyl-1-phenyl-6-(4-(piperazin-1-yl)phenyl)-1H-indazole hydrochloride]
23 | 6.25 | CCc1nn(-c2ccccc2)c2cc(N3CCN(C4CCNCC4)CC3)ccc12 [Compound 46, 3-Ethyl-1-phenyl-6-(4-(piperidin-4-yl)piperazin-1-yl)-1H-indazole hydrochloride]
24 | 6.17 | CSc1nn(-c2ccccc2)c2cc(N3CCC(N4CCNCC4)CC3)ccc12 [Compound 20, 3-(Methylthio)-1-phenyl-6-(4-(piperazin-1-yl)piperidin-1-yl)-1H-indazole hydrochloride]
25 | 6.11 | CSc1nn(-c2ccccc2)c2cc(NC3CCNCC3)ccc12 [Compound 109, (3-Methylsulfanyl-1-phenyl-1H-indazol-6-yl)-piperidin-4-yl-amine]
26 | 5.10 | CCc1nn(-c2ccccc2)c2nc(C3CCN(c4cccnc4)CC3)nc(O)c12 [Compound 93, 3-Ethyl-1-phenyl-6-(3,4,5,6-tetrahydro-2H-[1,3′]bipyridinyl-4-yl)-1H-pyrazolo[3,4-d]pyrimidin-4-ol]
27 | 4.94 | CCc1nn(-c2ccccc2)c2nc(C3CCN(C4CCNCC4)CC3)nc(O)c12 [Compound 95, 6-[1,4′]Bipiperidinyl-4-yl-3-ethyl-1-phenyl-1H-pyrazolo[3,4-d]pyrimidin-4-ol hydrochloride]
28 | 6.51 | CSc1nn(-c2ccccc2)c2cc(NC(=O)C3CCCNC3)ccc12 (stereo not drawn) [Compound 12, N-(3-(Methylthio)-1-phenyl-1H-indazol-6-yl)piperidine-3-carboxamide hydrochloride]
29 | 4.35 | CSc1nn(-c2ccc([N+](=O)[O-])cc2)c2cc(CN3CCNCC3)ccc12 [Compound 130, 3-Methylsulfanyl-1-(4-nitro-phenyl)-6-piperazin-1-ylmethyl-1H-indazole]
30 | 5.43 | Cc1nn(-c2ccccc2)c2cc(N3CCN(C4CCNC4)CC3)ccc12 (stereo not drawn) [Compound 63, 3-Methyl-1-phenyl-6-(4-(pyrrolidin-3-yl)piperazin-1-yl)-1H-indazole hydrochloride]
31 | 6.18 | CCOc1cc(-c2ccc(N3CCN(C)CC3)cc2)nc2c1c(CC)nn2-c1ccccc1 [Compound 103, 4-Ethoxy-3-ethyl-6-[4-(4-methyl-piperazin-1-yl)-phenyl]-1-phenyl-1H-pyrazolo[3,4-b]pyridine]
32 | 5.54 | CSc1nn(-c2ccccc2)c2cc(N3CCN(C(=O)C4CCCNC4)CC3)ccc12 (stereo not drawn) [Compound 16, 4-(3-Methylsulfanyl-1-phenyl-1H-indazol-6-yl)-piperazin-1-yl]-piperidin-3-yl-methanone hydrochloride]
33 | < 5.00 | COc1ccc(-n2nc(SC)c3ccc(C(=O)c4ccc5ncn(C)c5c4)cc32)cc1 [Compound 173, [1-(4-Methoxy-phenyl)-3-methylsulfanyl-1H-indazol-6-yl]-(3-methyl-3H-benzoimidazol-5-yl)-methanone]
34 | 5.63 | CCc1nn(-c2ccccc2)c2cc(N3CCN(C4CCNC4)C3=O)ccc12 (stereo not drawn) [Compound 48, 1-(3-Ethyl-1-phenyl-1H-indazol-6-yl)-3-(pyrrolidin-3-yl)imidazolidin-2-one hydrochloride]
35 | 5.28 | CCc1nn(-c2ccccc2)c2nc(C3CCN(C4CCNC4)CC3)nc(O)c12 (stereo not drawn) [Compound 94, 3-Ethyl-1-phenyl-6-(1-pyrrolidin-3-yl-piperidin-4-yl)-1H-pyrazolo[3,4-d]pyrimidin-4-ol hydrochloride]
36 | 5.35 | COc1nn(-c2ccccc2)c2cc(NC(=O)c3ccc4[nH]cnc4c3)ccc12 [Compound 80, N-(3-methoxy-1-phenyl-1H-indazol-6-yl)-1H-benzo[d]imidazole-5-carboxamide]
37 | 5.39 | CSc1nn(-c2ccccc2)c2cc(C(=O)C(=O)N3CCNCC3)ccc12 [Compound 168, 1-(3-Methylsulfanyl-1-phenyl-1H-indazol-6-yl)-2-piperazin-1-yl-ethane-1,2-dione]
38 | < 5.00 | CSc1nn(-c2ccccc2)c2cc(C=Cn3cncn3)ccc12 [Compound 152, 3-Methylsulfanyl-1-phenyl-6-(2-[1,2,4]triazol-1-yl-vinyl)-1H-indazole]
39 | < 5.00 | CSc1nn(-c2ccccc2)c2cc(C=Cc3ccc(C)nc3)ccc12 [Compound 178, 6-[2-(6-Methyl-pyridin-3-yl)-vinyl]-3-methylsulfanyl-1-phenyl-1H-indazole]

Row | Compound | pIC50
40 | CSc1nn(-c2cccc(F)c2)c2cc(C3=CCNCC3)ccc12 [Compound 179, 1-(3-Fluoro-phenyl)-3-methylsulfanyl-6-(1,2,3,6-tetrahydro-pyridin-4-yl)-1H-indazole] | 7.40
41 | CSc1nn(-c2ccc(C)cc2)c2cc(C3=CCNCC3)ccc12 [Compound 184, 3-Methylsulfanyl-6-(1,2,3,6-tetrahydro-pyridin-4-yl)-1-p-tolyl-1H-indazole] | 7.40
42 | CCc1nn(-c2ccccc2)c2cc(N3CCNC(C)C3)ccc12 (stereo not drawn) [Compound 56, 3-Ethyl-6-(3-methylpiperazin-1-yl)-1-phenyl-1H-indazole] | 6.07
